The source of these data is paper PMC4876719 (Cell chemical biology, 2016).

What is called IC50 is the concentration that inhibits the measured activity by half. A high value points to a need for much substance.

The target in the experiment is glutathione-S-transferase Pi 1 (GSTP1) (Homo sapiens, UniProt P09211). In words: CDNB-glutathione conjugation assay with pure GSTP1 after […] min pre-incubation. The format is biochemical.
Chain of glutathione-S-transferase Pi 1 (GSTP1) (P09211 2-210): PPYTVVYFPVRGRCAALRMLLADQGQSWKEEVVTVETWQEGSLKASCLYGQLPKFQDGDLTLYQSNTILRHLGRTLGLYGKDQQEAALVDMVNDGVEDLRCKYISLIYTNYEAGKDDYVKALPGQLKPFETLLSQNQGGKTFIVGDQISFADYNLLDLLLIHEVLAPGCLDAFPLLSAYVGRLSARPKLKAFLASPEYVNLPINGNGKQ

LAS17 had an IC50 of 500 nM.
